Here are results for two compounds from patent publication US9044527B2, “Wound care products with peracid compositions” (CHD Bioscience, Inc., priority 2011, dated 2015).

Experiment [1] concerns methicillin resistant staphylococcus aureus (MRSA). Nature of the experiment: MRSA streaked blood agar plate treated with PPA film discs (simulated MIC test). The format is cell-based. Conditions: 6 mm film discs made with 100 ppm and 1000 ppm PPA compound, incubated overnight. From the text: This bulk film material illustrated in the drawings can be easily fit between layers of dressing or gauze and protected from the moisture in the bandage. […] To test efficacy and stability of the incorporated PPA compound, six millimeter discs were cut out of the PPA treated matrices and placed onto a methicillin resistant staphylococcus aureus (MRSA) streaked blood agar plate. […] This method simulated the well-known minimum inhibitory concentration (MIC) test. The blood agar plates were incubated overnight at optimal temperature and then observed for microbial kill.
The control film disc was the diameter of the grown of the 1000 ppm disc. The discs were placed on the blood agar plate and were dissolved by the moisture from the agar which allowed the PPA compound to migrate out of the film. […] Thus the 1000 ppm ratio of ppm concentration to the circle of kill diameter was greater than for the 100 ppm concentration to the circle diameter in millimeters.

Experiment [2] deals with e. coli 25922. Nature of the experiment: Kirby-Bauer growth inhibition (disk diffusion) assay. It is filed as cell-based. Conditions: 10 μg gentamicin disc, 6 mm, 16-18 hours. The procedure:
Kirby-Bauer growth inhibition (or disk diffusion susceptibility testing) is used to quantify the efficiency of antibiotics and/or to test the sensitivity of particular rapidly growing bacteria to an antibiotic.
A bacterial inoculum was prepared from log-phase cultures (ATCC e. coli 25922) to a standard density (approximately 1×10^8 CFU/ml, which is equivalent to a 0.5 McFarland turbidity). The inoculum was applied to a culture dish with Muller-Hinton nutrient agar.
Dissolvable thin film biocide preparations were prepared as Examples 1 or 3, but the spiked biocide was used at an original film-pour concentration of 20,000 ppm (recall that when the film-pour dries, it loses approximately 16-25× of its weight through solvent evaporation, and thus the final concentration of the biocide is much higher than the film-pour, although some is lost through evaporation as evidenced by the acetic acid smell during dry-down).
Samples of hydrogel (single FT cycle) were also used in some experiments where spiked biocide films were applied to the hydrogel surface and the bi-layer sample applied to the culture surface.
At the time of infection, test materials are applied to the surface of the agar. After a growth a 35-37° C. in air, for period of 16-18 hours, the diameter of the zone of inhibited bacteria growth can be visualized and measured with calipers. […]
(In general: In agar diffusion tests the substance spreads into inoculated agar from a disc or well.)

For experiment [3], the system named is e. coli 25922. Conditions: 10 μg gentamicin disc, 6 mm; cited from earlier work.

For `CC(=O)C(=O)OO` [PPA compound, peroxy pyruvic acid], in experiment [1], the “kill of MRSA (circle of kill diameter)” value was “in proportion to the PPA concentration in the disc”. With gentamicin [Sensi-Disc], the “control zone inhibition diameter” value in the experiment on e. coli 25922 [2] was “agrees with published quality-control data”. The “zone inhibition diameter, published quality-control data” value in the experiment with e. coli 25922 [3] was 19-26 mm.
